Data as given in patent US6331555A, “Treatment of platelet derived growth factor related disorders such as cancers” (priority 1999, dated 2001).

What was measured:
9L glioma = assay: SC xenograft in mice; type: in vivo, rat; conditions: nu/nu, 20 mg/kg/day, day 20
Procedure: Cell lines were grown in appropriate medium (see Appendix 1). Cells were harvested at or near confluency with 0.05% Trypsin-EDTA and pelleted at 450×g for 10 min. Pellets were resuspended in sterile PBS or media (without FBS) to a particular concentration and the cells were implanted into the hindflank of mice. Tumor growth was measured over 3 to 6 weeks using venier calipers. Tumor volumes were calculated as a product of length×width×height unless otherwise indicated. P values were calculated using the Students' t-test.

SKOV3T cells = assay: Survival, IP SKOV3T xenograft in BALB/c nu/nu mice; type: in vivo, human; conditions: 15 mg/kg/day IP in DMSO
Procedure: Cell lines were grown in the appropriate media as described in Appendix 1. Cells were harvested and washed in sterile PBS or medium without FBS, resuspended to a suitable concentration, and injected into the IP cavity of […] of the appropriate strain. Prior to implantation of 7TD1 cells, C57BL/6 mice were primed by IP injection of 0.5 mL Pristane. SKOV3T cells were implanted into athymic mice without Pristane priming. Mice were observed daily for the occurrence of ascites formation. Individual animals were sacrificed when they presented with a weight gain of 40%, or when the IP tumor burden began to cause undue stress and pain to the animal.
In one experiment, SKOV3T cells (2×10^6 cells) were implanted into the IP cavity of BALB/c, nu/nu mice.

[1] = type: in vivo, mouse; conditions: IP A10 40 mg/kg single dose
Procedure: Plasma was prepared and frozen in liquid nitrogen. Tissues and organs were resected and immediately frozen in liquid nitrogen. After the addition of an internal standard, plasma samples were acidified with HCl and extracted with acetonitrile. The acetonitrile fraction was evaporated to dryness in a vacuum centrifuge with heating and redissolved in methanol. Tissue and organ samples were homogenized according to the weight ratio of 1:5 (w:v) in 50 mM Tris-HCl, pH 7.4, at 20,000 rev/min, using a tissue homogenizer (Brinkmann Polytron Model PT3000). After the addition of an internal standard, the homogenate was acidified with HCl and then extracted with acetonitrile. The acetonitrile fraction was then extracted with an equal volume of diethyl ether. The ether fraction was evaporated to dryness in a vacuum centrifuge with heating and redissolved in methanol.
Samples for HPLC analysis were injected onto a Hewlett Packard Hypersil 5-μm C18 cartridge column (100×4.6 mm). […] The compounds were monitored by UV absorption at 254 nm using a Hewlett-Packard diode-array detector (HP Model 1090). Plasma and tissue concentrations were determined from standard curves using peak area for quantitation. […]
Table XXII. […] Plasma and brain samples were prepared and analyzed by HPLC as described in Appendix 6. All results were calculated by the method of internal standardization. NT= not tested, ND= not detected.

[2] = tested on: NIH3T3 cells overexpressing the human PDGF-b receptor; assay: PDGF-stimulated cell cycle progression, flow cytometry; type: cell-based, mouse
Procedure: NIH3T3 mouse fibroblasts overexpressing the human PDGF-β receptor were seeded in DMEM supplemented with 10% CS and 2 mM GLN. Cells were grown to about 80% confluence and then treated overnight in serum-free medium (DMEM, 2 mM GLN, 2 mM NEAA, 2 mM NaPyr, and 2 mM HEPES). […] Cells were then collected, strained and analyzed by flow cytometry for DNA content.
The percentage of cells in the S phase of the cell cycle was determined by flow cytometry.
The cells were analyzed for DNA content by flow cytometry.

PDGF-R = assay: PDGF-BB-stimulated PDGF-R autophosphorylation, C6 cells, western blot; type: cell-based, rat; set-up: PDGF stimulated receptor phosphorylation: dose or concentration left out as unconfirmed
Procedure: For western blotting, cells were plated in 2 mL growth medium into 6-well dishes (500,000 cells per well) and allowed to attach overnight. The medium was replaced with 2 mL MCDB 105 (UCSF Cell Culture Facility) supplemented with 1% FBS. The plates were then incubated overnight at 37° C., ambient CO2. […] After a 7 min incubation at room temperature with ligand, the plates were put on ice and washed three times with 1 mL ice-cold PBS plus 1 mM orthovanadate. Lysis was achieved by pipetting cells in 0.5 mL of buffer containing 50 mM Tris, pH 7.4, 10% glycerol, 1% NP-40, 2 mM EDTA, 1 mM sodium vanadate (Na3 VO4), 10 mM pyrophosphate, 1 mM PMSF, 10 mg/mL aprotinin, 10 mg/mL leupeptin. […] The integrity of the protein-to-membrane transfer was determined by staining with 1% Ponceau S in 5% acetic acid for 5 min. […] Phosphotyresine was detected by incubating the membrane (1 hr at room temperature) with an anti-phosphotyosine antiserum diluted in blocking buffer at 1:3000. […]
Proteins were then separated by SDS-polyacrylamide gel electrophoresis (PAGE). […] The level of phosphorylated tyrosine was determined by quantitating the amount of bound anti-phosphotyrosine. Quantitation was carried out by peak area integration using a Molecular Dynamics Computing Densitometer (Model 300S), and Image Quant v3.0 software (Molecule Dynamics). […]

## Cc1oncc1C(=O)Nc1ccc(C(F)(F)F)cc1 [Compound A10, 5-methylisoxazole-4 carboxylic acid-(4-trifluromethyl)-anilide]
9L glioma
  % Inhibition: 83%
SKOV3T cells
  survival: significantly increase the survival
SKOV3T cells; after 32 days
  animals alive: 40%
SKOV3T cells; by 28 days
  animals died: one of A10 treated animals died by 28 days
[1]
  time by which A10 completely converted and undetectable: ≤ 1 h
[2]
  number of cells progressing to the S phase in response to PDGF: dose-dependent decrease in the number of cells progressing to the S phase
PDGF-R; 200 mM A10, 20 ng/ml PDGF-BB
  reduction of PDGF-R phosphorylation: reduced PDGF-R phosphorylation below that occurring in the absence of PDGF-BB stimulation
PDGF-R; increasing concentrations (50, 100)
  PDGF stimulated receptor phosphorylation: reduced PDGF stimulated receptor phosphorylation
